Results published in patent US10869483B2, “Coniothyrium minitans for use against moss growth” (Bayer CropScience Aktiengesellschaft, priority 2015, dated 2020).

Tested on: haircup moss growth
Assay: Drench test (greenhouse, moss growth on soil surface)
Format: in vivo
Settings: 6.25 kg/ha = 20 μL/mL, 20 mL drench onto soil, 19 weeks, 15° C., 0% = untreated control, 100% = no moss growth
Protocol: The test was carried out under greenhouse conditions.
120 mL of a mixture of steamed field soil and sand (1:1) was filled into transparent cylindrical vessels 5.5 cm in size.
The test formulation, the product CONTANS®, comprising 1×10^9 spores of the strain Coniothyrium minitans CON/M/91-08, was dissolved in water and diluted with water to the desired concentrations. 20 mL of the made-up solutions were pipetted onto the soil in the vessels.
The vessels were covered with a transparent lid.
The vessels remained in the greenhouse for the next 19 weeks, at 15° C. and at natural light conditions. The lids were opened slightly after approximately 2 weeks, and the soil was watered every 3 weeks and kept moist.
The evaluation was effected by estimating, per vessel, the soil surface area which had in the meantime been covered by growth, predominantly haircup moss growth. 0% means an efficacy which corresponds to that of the untreated control, while an efficacy of 100% means that no moss growth was discernible.

Question: For `CCCCCCCCCC[N+](C)(C)CCCCCCCCCC.[Cl-]` [DDAC-C10, Didecyldimethylammonium chloride with alkyl chain length C10], which Efficacy % is on record?
Answer: 100%
